Experimental data taken from ChEMBL document CHEMBL5291721, “A preclinical secondary pharmacology resource illuminates target-adverse drug reaction associations of marketed drugs” (Nat Commun, 2023).

Tests used:
[1] = target: T1, Alpha-2B adrenergic receptor (Homo sapiens, UniProt P18089)
T1 sequence (P18089 whole entry): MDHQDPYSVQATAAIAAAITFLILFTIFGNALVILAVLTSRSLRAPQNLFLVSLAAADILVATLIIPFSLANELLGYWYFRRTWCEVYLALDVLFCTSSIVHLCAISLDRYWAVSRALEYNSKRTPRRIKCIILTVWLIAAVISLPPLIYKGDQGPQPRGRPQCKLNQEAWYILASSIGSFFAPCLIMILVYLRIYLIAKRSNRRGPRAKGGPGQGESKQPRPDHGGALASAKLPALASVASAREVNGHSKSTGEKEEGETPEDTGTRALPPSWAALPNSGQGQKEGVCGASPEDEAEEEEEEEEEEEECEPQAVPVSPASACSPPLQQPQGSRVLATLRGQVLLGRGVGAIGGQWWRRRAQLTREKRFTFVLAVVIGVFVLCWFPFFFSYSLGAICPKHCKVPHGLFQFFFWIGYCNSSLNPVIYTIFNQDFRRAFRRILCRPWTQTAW

Progesterone receptor = target: T2, Progesterone receptor (Homo sapiens, UniProt P06401); assay type: functional
T2 sequence (P06401 whole entry): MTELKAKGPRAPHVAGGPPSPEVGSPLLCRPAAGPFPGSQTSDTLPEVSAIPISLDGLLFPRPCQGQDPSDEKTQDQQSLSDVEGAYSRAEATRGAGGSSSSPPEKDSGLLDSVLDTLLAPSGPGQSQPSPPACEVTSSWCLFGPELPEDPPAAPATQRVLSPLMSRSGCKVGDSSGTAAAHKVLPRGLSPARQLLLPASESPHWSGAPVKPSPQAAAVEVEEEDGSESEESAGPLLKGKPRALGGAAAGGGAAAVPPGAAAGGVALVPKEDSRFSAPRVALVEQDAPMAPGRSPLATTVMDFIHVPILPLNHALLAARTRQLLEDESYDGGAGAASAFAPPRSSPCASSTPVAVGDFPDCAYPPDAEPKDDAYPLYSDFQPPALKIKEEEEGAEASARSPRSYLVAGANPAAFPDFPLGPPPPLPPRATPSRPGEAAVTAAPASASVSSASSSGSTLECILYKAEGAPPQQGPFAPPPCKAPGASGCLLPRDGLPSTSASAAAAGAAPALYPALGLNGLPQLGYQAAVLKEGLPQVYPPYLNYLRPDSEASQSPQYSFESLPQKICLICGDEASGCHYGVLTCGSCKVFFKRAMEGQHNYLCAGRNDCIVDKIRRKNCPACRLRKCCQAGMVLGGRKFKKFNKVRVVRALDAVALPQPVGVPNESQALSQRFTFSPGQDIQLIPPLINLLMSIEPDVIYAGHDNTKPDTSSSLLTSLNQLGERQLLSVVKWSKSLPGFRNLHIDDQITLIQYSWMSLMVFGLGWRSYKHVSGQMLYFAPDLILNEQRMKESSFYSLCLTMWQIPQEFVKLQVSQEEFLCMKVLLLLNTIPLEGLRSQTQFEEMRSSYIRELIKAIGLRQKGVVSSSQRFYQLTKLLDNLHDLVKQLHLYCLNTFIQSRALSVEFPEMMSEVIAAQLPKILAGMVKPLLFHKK

[2] = target: Muscarinic acetylcholine receptor M3 (Homo sapiens, UniProt P20309)
Sequence of Muscarinic acetylcholine receptor M3 (P20309 whole entry): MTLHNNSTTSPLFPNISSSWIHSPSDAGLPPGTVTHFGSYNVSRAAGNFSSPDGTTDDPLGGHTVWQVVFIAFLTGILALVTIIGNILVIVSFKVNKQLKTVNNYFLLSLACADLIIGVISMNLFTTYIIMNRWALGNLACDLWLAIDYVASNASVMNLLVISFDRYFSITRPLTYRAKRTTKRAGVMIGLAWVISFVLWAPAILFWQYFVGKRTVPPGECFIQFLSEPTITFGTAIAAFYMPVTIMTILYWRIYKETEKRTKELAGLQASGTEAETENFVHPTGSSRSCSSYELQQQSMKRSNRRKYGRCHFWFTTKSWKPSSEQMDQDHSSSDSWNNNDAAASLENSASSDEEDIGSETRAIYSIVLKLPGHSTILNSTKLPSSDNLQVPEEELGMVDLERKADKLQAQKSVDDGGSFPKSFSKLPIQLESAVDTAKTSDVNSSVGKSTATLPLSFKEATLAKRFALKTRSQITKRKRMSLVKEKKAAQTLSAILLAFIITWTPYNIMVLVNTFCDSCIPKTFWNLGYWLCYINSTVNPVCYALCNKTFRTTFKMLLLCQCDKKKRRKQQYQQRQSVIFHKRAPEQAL

[3] = target: Sodium-dependent serotonin transporter (Homo sapiens, UniProt P31645)
Sequence of Sodium-dependent serotonin transporter (P31645 whole entry): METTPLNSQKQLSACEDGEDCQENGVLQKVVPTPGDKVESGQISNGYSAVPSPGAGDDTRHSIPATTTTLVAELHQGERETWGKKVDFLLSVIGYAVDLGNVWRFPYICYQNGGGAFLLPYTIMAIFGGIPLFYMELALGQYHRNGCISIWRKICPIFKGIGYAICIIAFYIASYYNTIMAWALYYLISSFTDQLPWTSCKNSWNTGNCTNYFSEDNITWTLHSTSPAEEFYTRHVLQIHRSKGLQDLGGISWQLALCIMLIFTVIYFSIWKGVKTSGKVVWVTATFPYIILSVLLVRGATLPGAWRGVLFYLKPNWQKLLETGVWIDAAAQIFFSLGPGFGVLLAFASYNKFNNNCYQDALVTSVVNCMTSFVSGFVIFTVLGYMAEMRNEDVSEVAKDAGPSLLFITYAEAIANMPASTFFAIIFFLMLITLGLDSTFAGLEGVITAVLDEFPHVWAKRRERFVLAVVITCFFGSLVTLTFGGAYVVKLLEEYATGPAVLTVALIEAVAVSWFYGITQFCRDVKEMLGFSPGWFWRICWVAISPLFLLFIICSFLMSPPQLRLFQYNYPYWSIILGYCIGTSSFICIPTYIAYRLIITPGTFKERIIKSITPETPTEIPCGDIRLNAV

Histamine H1 receptor = Histamine H1 receptor (Homo sapiens, UniProt P35367)
Sequence of Histamine H1 receptor (P35367 whole entry): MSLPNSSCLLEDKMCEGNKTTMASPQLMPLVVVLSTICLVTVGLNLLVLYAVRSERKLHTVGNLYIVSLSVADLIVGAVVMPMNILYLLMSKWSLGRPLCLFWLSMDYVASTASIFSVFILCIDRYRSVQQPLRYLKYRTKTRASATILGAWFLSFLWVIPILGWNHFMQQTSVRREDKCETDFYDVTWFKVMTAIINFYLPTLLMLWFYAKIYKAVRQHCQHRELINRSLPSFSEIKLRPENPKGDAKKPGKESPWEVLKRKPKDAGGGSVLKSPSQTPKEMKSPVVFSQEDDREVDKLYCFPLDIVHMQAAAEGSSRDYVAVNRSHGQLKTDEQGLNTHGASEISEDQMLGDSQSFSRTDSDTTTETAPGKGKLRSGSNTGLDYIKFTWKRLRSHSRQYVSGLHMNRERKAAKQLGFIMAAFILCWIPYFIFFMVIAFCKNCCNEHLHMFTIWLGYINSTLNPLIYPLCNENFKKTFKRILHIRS

[4] = target: T3, 5-hydroxytryptamine receptor 1A (Homo sapiens, UniProt P08908); assay type: functional, cell-based
T3 sequence (P08908 whole entry): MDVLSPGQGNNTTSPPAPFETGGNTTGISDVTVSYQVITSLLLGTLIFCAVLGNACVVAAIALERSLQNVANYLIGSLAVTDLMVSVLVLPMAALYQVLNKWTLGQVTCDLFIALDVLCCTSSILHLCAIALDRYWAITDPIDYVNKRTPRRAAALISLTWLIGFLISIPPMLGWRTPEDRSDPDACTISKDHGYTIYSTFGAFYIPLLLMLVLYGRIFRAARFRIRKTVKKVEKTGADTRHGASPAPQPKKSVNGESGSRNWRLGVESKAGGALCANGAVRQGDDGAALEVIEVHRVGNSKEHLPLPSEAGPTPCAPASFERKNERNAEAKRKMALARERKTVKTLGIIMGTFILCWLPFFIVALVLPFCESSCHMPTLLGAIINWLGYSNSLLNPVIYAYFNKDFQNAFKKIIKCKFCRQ

Vasopressin V1a receptor = Vasopressin V1a receptor (Homo sapiens, UniProt P37288)
Sequence of Vasopressin V1a receptor (P37288 whole entry): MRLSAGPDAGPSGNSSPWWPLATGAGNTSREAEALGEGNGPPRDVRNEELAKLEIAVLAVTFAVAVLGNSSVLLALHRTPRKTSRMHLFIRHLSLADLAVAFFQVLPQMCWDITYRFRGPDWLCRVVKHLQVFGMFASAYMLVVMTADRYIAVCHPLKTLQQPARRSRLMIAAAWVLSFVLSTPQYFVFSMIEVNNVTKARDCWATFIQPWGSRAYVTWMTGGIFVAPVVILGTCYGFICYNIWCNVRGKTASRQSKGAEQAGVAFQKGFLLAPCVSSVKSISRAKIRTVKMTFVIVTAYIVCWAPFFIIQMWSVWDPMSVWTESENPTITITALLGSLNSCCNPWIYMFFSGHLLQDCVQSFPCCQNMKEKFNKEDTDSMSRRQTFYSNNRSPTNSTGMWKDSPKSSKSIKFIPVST

B2 bradykinin receptor = target: T4, B2 bradykinin receptor (Homo sapiens, UniProt P30411)
T4 sequence (P30411 whole entry): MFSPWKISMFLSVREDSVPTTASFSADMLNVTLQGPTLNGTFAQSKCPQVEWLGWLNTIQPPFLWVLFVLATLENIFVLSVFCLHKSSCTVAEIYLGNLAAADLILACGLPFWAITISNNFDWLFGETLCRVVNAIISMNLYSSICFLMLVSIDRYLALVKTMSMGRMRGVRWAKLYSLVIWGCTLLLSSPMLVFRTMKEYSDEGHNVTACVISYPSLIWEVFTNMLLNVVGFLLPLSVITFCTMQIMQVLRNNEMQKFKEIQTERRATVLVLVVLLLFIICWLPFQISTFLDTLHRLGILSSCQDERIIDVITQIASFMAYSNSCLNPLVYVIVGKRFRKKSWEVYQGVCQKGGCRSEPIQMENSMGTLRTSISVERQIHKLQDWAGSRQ
Also: assay procedure not described here.

SMILES	AC50 [1] [µM]	AC50 (Progesterone receptor) [µM]	AC50 [2] [µM]	AC50 [3] [µM]	AC50 (Histamine H1 receptor) [µM]	AC50 [4] [µM]	AC50 (Vasopressin V1a receptor) [µM]	AC50 (B2 bradykinin receptor) [µM]
CCOCC(O)COc1ccc(NC(=O)CC[S+](C)C)cc1 (stereo unspecified)	> 30	> 30	> 30	> 30	> 30	> 30	> 30	–
CCC[C@@]1(CCc2ccccc2)CC(O)=C([C@H](CC)c2cccc(NS(=O)(=O)c3ccc(C(F)(F)F)cn3)c2)C(=O)O1	> 30	13	> 30	> 30	> 30	> 30	> 30	–
CN(C)CCc1c[nH]c2ccc(CS(=O)(=O)N3CCCC3)cc12 [ALMOTRIPTAN]	30	> 30	> 30	> 30	> 30	–	> 30	> 30
CC[N+](CC)(CCNC(=O)C(=O)NCC[N+](CC)(CC)Cc1ccccc1Cl)Cc1ccccc1Cl [AMBENONIUM]	> 30	> 30	1.1	6.1	> 30	> 30	> 30	> 30
Cn1cnc2c(F)c(Nc3ccc(Br)cc3F)c(C(=O)NOCCO)cc21 [BINIMETINIB]	> 30	> 30	> 30	> 30	> 30	> 30	> 30	–
CC(C)C[C@H](NC(=O)[C@H](Cc1ccccc1)NC(=O)c1cnccn1)B(O)O [BORTEZOMIB]	> 30	> 30	> 30	> 30	> 30	> 30	> 30	> 30
CN(C)CCOC(c1ccc(Cl)cc1)c1ccccn1 (stereo unspecified) [CARBINOXAMINE]	19	> 30	> 30	3	0.11	> 30	> 30	> 30
CCN(CC)CCn1c(=O)c(Cc2ccc(OC)cc2)nc2ccccc21 [CAROVERINE]	21	> 30	> 30	> 30	25	> 30	> 30	> 30
O=C(O)[C@H]1/C(=C/CO)O[C@@H]2CC(=O)N21 [CLAVULANIC ACID]	> 30	> 30	> 30	> 30	> 30	> 30	> 30	–
CC(C)/N=c1\cc2n(-c3ccc(Cl)cc3)c3ccccc3nc-2cc1Nc1ccc(Cl)cc1 [CLOFAZIMINE]	> 30	> 30	> 30	20	8.56	> 30	> 30	> 30
C[C@@H](O)[C@H]1C(=O)N2C(C(=O)O)=C(SCCN=CN)C[C@H]12 [IMIPENEM ANHYDROUS]	> 300	> 300	> 300	> 300	> 300	> 300	> 300	–
N[C@@H](Cc1cc(I)c(Oc2cc(I)c(O)c(I)c2)c(I)c1)C(=O)O [LEVOTHYROXINE]	> 30	8.7	> 30	> 30	> 30	> 30	> 30	> 10
CNC1(C)C2CCC(C2)C1(C)C (stereo unspecified) [MECAMYLAMINE]	> 10	> 10	> 30	> 10	> 10	> 10	> 10	> 10
CO[C@@H]1[C@@H](OC(N)=O)[C@@H](O)[C@H](Oc2ccc3c(O)c(NC(=O)c4ccc(O)c(CC=C(C)C)c4)c(=O)oc3c2C)OC1(C)C [NOVOBIOCIN]	> 30	> 30	> 30	> 30	> 30	> 30	> 30	–
CC(=O)SCC(Cc1ccccc1)C(=O)NCC(=O)OCc1ccccc1 (stereo unspecified) [RACECADOTRIL]	> 30	> 30	> 30	> 30	> 30	> 30	> 30	> 30
CCOc1ccccc1OCCN[C@H](C)Cc1ccc(OC)c(S(N)(=O)=O)c1 [TAMSULOSIN]	1.9	–	> 30	> 30	> 10	0.02	> 30	> 30
C[C@H](Cn1cnc2c(N)ncnc21)OCP(=O)(O)O [TENOFOVIR ANHYDROUS]	> 30	> 30	> 30	> 30	> 30	> 30	> 30	> 30
COc1cc2c(cc1OC)C1CC(=O)C(CC(C)C)CN1CC2 (stereo unspecified) [TETRABENAZINE]	> 30	> 30	> 30	> 30	> 30	> 30	> 30	–
CC(C)(CO)c1cc2cc(NC(=O)C3(c4ccc5c(c4)OC(F)(F)O5)CC3)c(F)cc2n1C[C@@H](O)CO [TEZACAFTOR]	> 30	> 30	> 30	> 30	> 30	> 10	> 30	–
c1cnc2cc3c(cc2n1)[C@@H]1CNC[C@H]3C1 [VARENICLINE]	> 30	> 30	> 30	> 30	> 30	> 30	> 30	–
Nc1c2c(nc3ccccc13)CCCC2O (stereo unspecified) [VELNACRINE]	> 30	> 30	> 30	> 30	> 30	> 30	> 30	–
